According to the supplement of paper PMC10307832:

Assays:
Assay in all cases: relative viability (nuclei count vs DMSO), 5 days (fraction); higher = more cells survive
[1] = compound: C1=CC=C(C(=C1)C2=CC=C(C=C2)C3=CSC4=C3C(=C(C(=O)N4)C#N)O)O + CC(C)C[C@H](NC(=O)[C@H](Cc1ccccc1)NC(=O)c1cnccn1)B(O)O [Bortezomib] (partner 0.002 µM)
In short: (§1)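 Five library-drug doses in √10 steps were combined with a fixed anchor-drug dose, or a single drug was given alone, by pin tool to lung cancer cell lines in 1536-well plates the day after seeding. Nuclei were stained and counted after 5 days. Relative viability is the nuclei count in treated wells over that in vehicle wells, taken as the median of duplicate plates.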

TGX 221 + Bortezomib = compound: CC1=CN2C(=O)C=C(N=C2C(=C1)C(C)NC3=CC=CC=C3)N4CCOCC4 [TGX 221] + CC(C)C[C@H](NC(=O)[C@H](Cc1ccccc1)NC(=O)c1cnccn1)B(O)O [Bortezomib] (partner 0.002 µM)
In short: as §1

TGX 221 + Crizotinib = compound: CC1=CN2C(=O)C=C(N=C2C(=C1)C(C)NC3=CC=CC=C3)N4CCOCC4 [TGX 221] + C[C@@H](Oc1cc(-c2cnn(C3CCNCC3)c2)cnc1N)c1c(Cl)ccc(F)c1Cl [Crizotinib] (partner 1 µM)
In short: as §1

TGX 221 + Dasatinib = compound: CC1=CN2C(=O)C=C(N=C2C(=C1)C(C)NC3=CC=CC=C3)N4CCOCC4 [TGX 221] + Cc1nc(Nc2ncc(C(=O)Nc3c(C)cccc3Cl)s2)cc(N2CCN(CCO)CC2)n1 [Dasatinib] (partner 0.075 µM)
In short: as §1

NCI-H650 showed a relative viability ([1]; first compound 0.08 µM) of 0.583, a relative viability ([1]; first compound 0.253 µM) of 0.833 and a relative viability ([1]; first compound 0.8 µM) of 0.772. It also gave a relative viability ([1]; first compound 2.53 µM) of 0.936, a relative viability ([1]; first compound 8 µM) of 0.617 and a relative viability (TGX 221 + Bortezomib; first compound 0.08 µM) of 0.697. It also gave a relative viability (TGX 221 + Bortezomib; first compound 0.253 µM) of 0.748, a relative viability (TGX 221 + Bortezomib; first compound 0.8 µM) of 0.721 and a relative viability (TGX 221 + Bortezomib; first compound 2.53 µM) of 0.639. The relative viability (TGX 221 + Bortezomib; first compound 8 µM) was 0.791, the relative viability (TGX 221 + Crizotinib; first compound 0.08 µM) was 0.729 and the relative viability (TGX 221 + Crizotinib; first compound 0.253 µM) was 0.655. It also gave a relative viability (TGX 221 + Crizotinib; first compound 0.8 µM) of 0.624, a relative viability (TGX 221 + Crizotinib; first compound 2.53 µM) of 0.689 and a relative viability (TGX 221 + Crizotinib; first compound 8 µM) of 0.534. For the same cell line, the relative viability (TGX 221 + Dasatinib; first compound 0.08 µM) was 0.44, the relative viability (TGX 221 + Dasatinib; first compound 0.253 µM) was 0.402 and the relative viability (TGX 221 + Dasatinib; first compound 0.8 µM) was 0.424. For the same cell line, the relative viability (TGX 221 + Dasatinib; first compound 2.53 µM) was 0.393 and the relative viability (TGX 221 + Dasatinib; first compound 8 µM) was 0.429.
Work on NCI-H661 yielded a relative viability ([1]; first compound 0.08 µM) of 1.05, a relative viability ([1]; first compound 0.253 µM) of 0.71 and a relative viability ([1]; first compound 0.8 µM) of 0.697. The relative viability ([1]; first compound 2.53 µM) was 0.678, the relative viability ([1]; first compound 8 µM) was 0.718 and the relative viability (TGX 221 + Bortezomib; first compound 0.08 µM) was 0.689. For the same cell line, the relative viability (TGX 221 + Bortezomib; first compound 0.253 µM) was 0.59, the relative viability (TGX 221 + Bortezomib; first compound 0.8 µM) was 0.75 and the relative viability (TGX 221 + Bortezomib; first compound 2.53 µM) was 0.677. The relative viability (TGX 221 + Bortezomib; first compound 8 µM) was 0.668, the relative viability (TGX 221 + Crizotinib; first compound 0.253 µM) was 1.12 and the relative viability (TGX 221 + Crizotinib; first compound 0.8 µM) was 0.973. It also gave a relative viability (TGX 221 + Crizotinib; first compound 2.53 µM) of 0.959, a relative viability (TGX 221 + Crizotinib; first compound 8 µM) of 1.07 and a relative viability (TGX 221 + Dasatinib; first compound 0.08 µM) of 0.945. For the same cell line, the relative viability (TGX 221 + Dasatinib; first compound 0.253 µM) was 0.831, the relative viability (TGX 221 + Dasatinib; first compound 0.8 µM) was 0.803 and the relative viability (TGX 221 + Dasatinib; first compound 2.53 µM) was 0.876. The relative viability (TGX 221 + Dasatinib; first compound 8 µM) was 0.828.
For NCI-H727, the relative viability ([1]; first compound 0.08 µM) was 0.643, the relative viability ([1]; first compound 0.253 µM) was 1.18 and the relative viability ([1]; first compound 0.8 µM) was 0.986. For the same cell line, the relative viability ([1]; first compound 2.53 µM) was 0.714, the relative viability ([1]; first compound 8 µM) was 0.747 and the relative viability (TGX 221 + Bortezomib; first compound 0.08 µM) was 0.827. For the same cell line, the relative viability (TGX 221 + Bortezomib; first compound 0.253 µM) was 0.829, the relative viability (TGX 221 + Bortezomib; first compound 0.8 µM) was 1.03 and the relative viability (TGX 221 + Bortezomib; first compound 2.53 µM) was 0.737. The relative viability (TGX 221 + Bortezomib; first compound 8 µM) was 0.893, the relative viability (TGX 221 + Crizotinib; first compound 0.08 µM) was 0.879 and the relative viability (TGX 221 + Crizotinib; first compound 0.253 µM) was 0.792. For the same cell line, the relative viability (TGX 221 + Crizotinib; first compound 0.8 µM) was 0.663, the relative viability (TGX 221 + Crizotinib; first compound 2.53 µM) was 0.861 and the relative viability (TGX 221 + Crizotinib; first compound 8 µM) was 0.821. For the same cell line, the relative viability (TGX 221 + Dasatinib; first compound 0.08 µM) was 0.287, the relative viability (TGX 221 + Dasatinib; first compound 0.253 µM) was 0.436 and the relative viability (TGX 221 + Dasatinib; first compound 0.8 µM) was 0.412. The relative viability (TGX 221 + Dasatinib; first compound 2.53 µM) was 0.409 and the relative viability (TGX 221 + Dasatinib; first compound 8 µM) was 0.439.
For NCI-H838, the relative viability ([1]; first compound 0.08 µM) was 0.776, the relative viability ([1]; first compound 0.253 µM) was 0.816 and the relative viability ([1]; first compound 0.8 µM) was 1.03. The relative viability ([1]; first compound 2.53 µM) was 0.715, the relative viability ([1]; first compound 8 µM) was 0.634 and the relative viability (TGX 221 + Bortezomib; first compound 0.08 µM) was 0.751. It also gave a relative viability (TGX 221 + Bortezomib; first compound 0.253 µM) of 0.853, a relative viability (TGX 221 + Bortezomib; first compound 0.8 µM) of 0.713 and a relative viability (TGX 221 + Bortezomib; first compound 2.53 µM) of 0.712. It also gave a relative viability (TGX 221 + Bortezomib; first compound 8 µM) of 0.544, a relative viability (TGX 221 + Crizotinib; first compound 0.08 µM) of 0.833 and a relative viability (TGX 221 + Crizotinib; first compound 0.253 µM) of 0.77. For the same cell line, the relative viability (TGX 221 + Crizotinib; first compound 0.8 µM) was 0.783, the relative viability (TGX 221 + Crizotinib; first compound 2.53 µM) was 0.699 and the relative viability (TGX 221 + Crizotinib; first compound 8 µM) was 0.51. The relative viability (TGX 221 + Dasatinib; first compound 0.08 µM) was 0.305, the relative viability (TGX 221 + Dasatinib; first compound 0.253 µM) was 0.258 and the relative viability (TGX 221 + Dasatinib; first compound 0.8 µM) was 0.273. It also gave a relative viability (TGX 221 + Dasatinib; first compound 2.53 µM) of 0.234 and a relative viability (TGX 221 + Dasatinib; first compound 8 µM) of 0.223.
